Like-named read-outs stand apart in the source and are kept apart here.
Legend:
[1] = male, Sprague-Dawley, rat, in vivo, po
[2] = Sprague-Dawley, rat, in vivo, 8.8 umol/kg
[3] = cynomolgus monkey, in vivo, po; for AUCinf, free allopregnanolone / AUCinf, total allopregnanolone / Cmax, free allopregnanolone / Cmax, total allopregnanolone: male, 8.8 umol/kg

## CCCCCCCC/C=C\CCCCCCCC(=O)OCC(COC(=O)CCCCCCC/C=C\CCCCCCCC)OC(=O)CC(C)CC(=O)OCO[C@@H]1CC[C@@]2(C)[C@@H](CC[C@@H]3[C@@H]2CC[C@]2(C)[C@@H](C(C)=O)CC[C@@H]32)C1 (stereo partly drawn) [I-9]
[1]; 2 mg/kg
  Cmax: 126 nM
  Mean Plasma AUC, 0-24 h: 192.1 nM·h
  Tmax: 1.3 h

## CCCCCCCC(=O)OCC(COC(=O)CCCCCCC)OC(=O)CC(C)CC(=O)OC(C)OC(=O)O[C@@H]1CC[C@@]2(C)[C@@H](CC[C@@H]3[C@@H]2CC[C@]2(C)[C@@H](C(C)=O)CC[C@@H]32)C1 (stereo partly drawn) [I-36, ALL-CMSI-C5bMe-2-TG-octanoate]
[2]
  AUCinf, free allopregnanolone: 1.12 nM·h
  AUCinf, total allopregnanolone: 3.86 nM·h
  Cmax, free allopregnanolone: 540 nM
  Cmax, total allopregnanolone: 800 nM
[3]
  Prodrug detectability in plasma samples after dose administration: detectable in plasma samples after dose administration at all time-points
  AUCinf, free allopregnanolone: 0.62 nM·h
  AUCinf, total allopregnanolone: 16.2 nM·h
  Cmax, free allopregnanolone: 100 nM
  Cmax, total allopregnanolone: 2720 nM
[1]
  Cmax: 242 nM
  Tmax: 1.2 h

## CCCC(=O)OCC(COC(=O)CCC)OC(=O)CC(C)CC(=O)OC(C)OC(=O)O[C@@H]1CC[C@@]2(C)[C@@H](CC[C@@H]3[C@@H]2CC[C@]2(C)[C@@H](C(C)=O)CC[C@@H]32)C1 (stereo partly drawn) [I-37]
[1]
  Tmax: 0.8 h

## CC(=O)OCC(COC(C)=O)OC(=O)CC(C)CC(=O)OC(C)OC(=O)O[C@@H]1CC[C@@]2(C)[C@@H](CC[C@@H]3[C@@H]2CC[C@]2(C)[C@@H](C(C)=O)CC[C@@H]32)C1 (stereo partly drawn) [I-38]
[1]
  Mean Plasma AUC, 0-24 h: 450 nM·h
  Tmax: 1 h

## CCCCCCCC/C=C\CCCCCCCC(=O)OCC(COC(=O)CCCCCCC/C=C\CCCCCCCC)OC(=O)CCCCC(=O)OCO[C@@H]1CC[C@@]2(C)[C@@H](CC[C@@H]3[C@@H]2CC[C@]2(C)[C@@H](C(C)=O)CC[C@@H]32)C1 [I-40]
[1]; 2 mg/kg
  Tmax: 1.7 h

## CCCCCCCC/C=C\CCCCCCCC(=O)OCC(COC(=O)CCCCCCC/C=C\CCCCCCCC)OC(=O)CCCCCCC(=O)OCO[C@@H]1CC[C@@]2(C)[C@@H](CC[C@@H]3[C@@H]2CC[C@]2(C)[C@@H](C(C)=O)CC[C@@H]32)C1 [I-41]
[1]; 2 mg/kg
  Tmax: 1.7 h

## CCCCCCCC/C=C\CCCCCCCC(=O)OCC(COC(=O)CCCCCCC/C=C\CCCCCCCC)OC(=O)CC(C)CCCCC(=O)OCO[C@@H]1CC[C@@]2(C)[C@@H](CC[C@@H]3[C@@H]2CC[C@]2(C)[C@@H](C(C)=O)CC[C@@H]32)C1 (stereo partly drawn) [I-42]
[1]; 2 mg/kg
  Tmax: 1.5 h

## CCCCCCCC(=O)OCC(COC(=O)CCCCCCC)OC(=O)CC(C)CC(=O)OCOC(=O)O[C@@H]1CC[C@@]2(C)[C@@H](CC[C@@H]3[C@@H]2CC[C@]2(C)[C@@H](C(C)=O)CC[C@@H]32)C1 (stereo partly drawn) [I-47, ALL-CASI-C5bMe-2-TG-octanoate]
[2]
  AUCinf, free allopregnanolone: 1.15 nM·h
  AUCinf, total allopregnanolone: 3.03 nM·h
  Cmax, free allopregnanolone: 520 nM
  Cmax, total allopregnanolone: 900 nM
[3]
  Prodrug detectability in plasma samples after dose administration: detectable in plasma samples after dose administration at all time-points
  AUCinf, free allopregnanolone: 0.78 nM·h
  AUCinf, total allopregnanolone: 7.4 nM·h
  Cmax, free allopregnanolone: 120 nM
  Cmax, total allopregnanolone: 1170 nM

## CCCCCCCC/C=C\CCCCCCCC(=O)OCC(COC(=O)CCCCCCC/C=C\CCCCCCCC)OC(=O)CCCCC(C)CC(=O)OCOC(=O)O[C@@H]1CC[C@@]2(C)[C@@H](CC[C@@H]3[C@@H]2CC[C@]2(C)[C@@H](C(C)=O)CC[C@@H]32)C1 (stereo partly drawn) [I-49, ALL-CASI-C8b′Me-2-TG-oleate]
[1]; 2 mg/kg
  Tmax: 1.7 h

Source: patent US11975073B2 (priority 2020, dated 2024)
